From ChEMBL document CHEMBL1201862, “PubChem BioAssay data set” (2004)
The source made the active and inactive calls.

Key:
[1] = tested on: Streptococcus sp. 'group A'; assay: Streptococcus pyogenes SK(-)GAS viability under kanamycin – luminescence, BacTiterGlo, confirmation, counter-screen for streptokinase expression inhibitor project, dose response (AID 1900); assay type: functional, organism-based
[2] = target: T1, Streptokinase A (Streptococcus pyogenes serotype M1, UniProt P10520); assay: viability-normalized secreted streptokinase activity reduction – plasminogen activation absorbance, OD405, dose response (AID 1914); assay type: functional, Streptococcus pyogenes M1 GAS;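 also: secreted streptokinase activity via plasminogen activation per viability signal from cell pellet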
T1 sequence (P10520 whole entry): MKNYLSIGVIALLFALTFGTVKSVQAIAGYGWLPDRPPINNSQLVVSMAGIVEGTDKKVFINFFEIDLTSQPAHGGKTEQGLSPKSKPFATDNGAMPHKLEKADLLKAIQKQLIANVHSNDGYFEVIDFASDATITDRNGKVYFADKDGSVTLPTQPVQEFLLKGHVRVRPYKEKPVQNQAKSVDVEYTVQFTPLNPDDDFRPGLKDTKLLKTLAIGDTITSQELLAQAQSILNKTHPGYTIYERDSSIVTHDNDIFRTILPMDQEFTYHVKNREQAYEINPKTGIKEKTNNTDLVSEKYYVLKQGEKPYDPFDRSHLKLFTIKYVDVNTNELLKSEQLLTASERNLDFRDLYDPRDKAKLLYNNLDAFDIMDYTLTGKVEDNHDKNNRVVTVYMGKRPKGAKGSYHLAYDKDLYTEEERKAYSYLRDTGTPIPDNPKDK

[3] = tested on: Streptococcus; assay: GAS UMAA2166 growth inhibition – luminescence, BacTiterGlo, counter-screen for streptokinase expression inhibitor project, dose response (AID 1915); assay type: functional, organism-based;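 also: potency for reduction of bacterial viability or growth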
[4] = tested on: Vero; assay: viability of Vero cells under compound – cytotoxicity control for flavivirus capping enzyme inhibitors (AID 588742); assay type: functional; conditions: Chlorocebus sabaeus
[5] = target: Genome polyprotein (dengue virus type 2, UniProt P29990); assay: flavivirus cap methylation enzyme inhibition – biochemical, confirmation dose response, primary screen (AID 588689); assay type: functional
[6] = bead-based luminescence quenchers, dual-tagged ARNT – biochemical, AlphaScreen, cherry-pick, artefact control for ARNT-TACC3 interaction inhibitor project, dose response (AID 651705); assay type: functional;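 also: AlphaScreen bead proximity signal that flags compounds interfering with the detection technology; potency reflects signal decrease which marks the compound as an assay artifact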
[7] = inhibition of ARNT PAS-B/TACC3 complex formation – biochemical, AlphaScreen, cherry-picked samples, confirmation (AID 651703); assay type: functional, Homo sapiens;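 also: His-tagged ARNT PAS-B domain paired with GST-TACC3 E629A dimer coactivator fragment; potency of inhibitors that break up the complex and lower AlphaScreen signal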
[8] = target: Nonstructural protein 1 (Influenza A virus, UniProt Q194T2); assay type: functional, Influenza A virus (A/California/07/2009(H1N1))
[9] = target: Delta-type opioid receptor (Homo sapiens, UniProt P41143); assay: Counterscreen for agonists of heterodimerization of the mu 1 (OPRM1) and delta 1 (OPRD1) opioid receptors: Luminescence-based cell-based high throughput dose response assay to identify agonists of OPRD1 homodimerization. [Related pubchem assays (depositor defined):AID504326, AID504355, AID504692, AID504904, AID504905]; assay type: functional
[10] = target: Mu-type opioid receptor (Homo sapiens, UniProt P35372); assay: Counterscreen for agonists of heterodimerization of the mu 1 (OPRM1) and delta 1 (OPRD1) opioid receptors: Luminescence-based cell-based high throughput dose response assay to identify agonists of OPRM1 homodimerization.; assay type: functional;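 also: U2OS cells expressing OPRM1 and beta-arrestin as split beta-galactosidase partners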
[11] = target: 5-hydroxytryptamine receptor 5A (Homo sapiens, UniProt P47898); assay: Counterscreen for agonists of OPRM1-OPRD1 heterodimerization: luminescence-based cell-based high throughput dose response assay to identify agonists of 5-hydroxytryptamine (serotonin) 5A receptor (HTR5A). [Related pubchem assays (depositor defined):AID504326, AID504355, AID504692, AID504904, AID504905]; assay type: functional
[12] = target: Ras and Rab interactor 1/Tyrosine-protein kinase ABL1 (Homo sapiens, UniProt P00519+Q13671); assay type: functional;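 also: biochemical TR-FRET dose-response test measuring inhibition of binding between Rin1 and Abl proteins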
[13] = reduction of Shn3 3'UTR-driven luciferase in osteoblasts – cell-based, Clone20 osteoblasts, firefly luciferase, cherry-picked, dose response (AID 624132); assay type: functional;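 also: firefly luciferase luminescence from reporter carrying the Shn3 3'UTR in osteoblasts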
[14] = loss of viability in HepG2 cells – cell-based, CellTiter-Glo, cherry-picked, cytotoxicity control for Shn3 inhibitor project, dose response (AID 624134); assay type: functional
[15] = non-specific 3'UTR reporter inhibition in Clone20-Shn3RL – cell-based, Renilla luciferase, cherry-picked, counter-screen for Shn3 inhibitor project, dose response (AID 624133); assay type: functional
[16] = target: T2, Apoptotic protease-activating factor 1 (Homo sapiens, UniProt O14727); assay: SAR analysis of small molecule Activators of Apaf-1 in a Fluorescent assay.; assay type: functional; conditions: read-out: EC50_Mean;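 also: caspase-3 cleavage of fluorogenic Rh110 DEVD substrate downstream of apoptosome activation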
T2 sequence (O14727 whole entry): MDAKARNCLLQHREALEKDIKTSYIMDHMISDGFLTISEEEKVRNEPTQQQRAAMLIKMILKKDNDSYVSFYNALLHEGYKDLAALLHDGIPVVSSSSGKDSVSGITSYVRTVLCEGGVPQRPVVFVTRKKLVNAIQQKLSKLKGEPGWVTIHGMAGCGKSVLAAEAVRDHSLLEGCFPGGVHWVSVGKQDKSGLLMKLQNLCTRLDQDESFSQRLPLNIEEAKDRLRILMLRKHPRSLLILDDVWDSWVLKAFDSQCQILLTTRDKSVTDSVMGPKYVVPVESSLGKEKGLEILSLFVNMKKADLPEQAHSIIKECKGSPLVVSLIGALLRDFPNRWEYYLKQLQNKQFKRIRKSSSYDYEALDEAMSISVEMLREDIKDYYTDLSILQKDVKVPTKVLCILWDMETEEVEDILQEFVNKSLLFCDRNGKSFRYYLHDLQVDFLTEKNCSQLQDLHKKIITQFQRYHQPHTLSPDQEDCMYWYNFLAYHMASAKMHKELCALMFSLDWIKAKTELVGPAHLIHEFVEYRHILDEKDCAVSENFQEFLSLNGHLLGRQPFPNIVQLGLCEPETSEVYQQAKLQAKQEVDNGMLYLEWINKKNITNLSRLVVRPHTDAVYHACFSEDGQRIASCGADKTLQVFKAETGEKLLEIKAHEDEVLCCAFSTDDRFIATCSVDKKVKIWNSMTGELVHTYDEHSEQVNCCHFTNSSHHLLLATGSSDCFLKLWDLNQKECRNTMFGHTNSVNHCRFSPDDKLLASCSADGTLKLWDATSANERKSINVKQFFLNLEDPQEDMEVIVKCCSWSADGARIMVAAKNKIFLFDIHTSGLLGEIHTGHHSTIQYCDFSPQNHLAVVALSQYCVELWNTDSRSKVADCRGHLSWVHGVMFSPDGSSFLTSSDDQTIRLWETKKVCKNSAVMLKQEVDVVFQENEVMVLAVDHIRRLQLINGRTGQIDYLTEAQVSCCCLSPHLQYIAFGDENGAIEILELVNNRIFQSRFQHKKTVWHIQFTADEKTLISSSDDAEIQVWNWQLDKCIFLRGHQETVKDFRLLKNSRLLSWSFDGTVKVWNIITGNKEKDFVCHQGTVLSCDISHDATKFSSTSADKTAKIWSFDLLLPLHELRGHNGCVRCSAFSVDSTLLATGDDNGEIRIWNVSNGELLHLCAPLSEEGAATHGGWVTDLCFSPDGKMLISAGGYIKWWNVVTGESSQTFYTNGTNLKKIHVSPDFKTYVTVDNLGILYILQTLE

[17] = target: T3, Tyrosine-protein phosphatase non-receptor type 11 (Homo sapiens, UniProt Q06124); assay: PTPN11 enzyme inhibitors – biochemical, selectivity assay for STEP inhibitor project, dose response (AID 602367); assay type: functional; conditions: read-out: IC50_Mean
T3 sequence (Q06124 whole entry): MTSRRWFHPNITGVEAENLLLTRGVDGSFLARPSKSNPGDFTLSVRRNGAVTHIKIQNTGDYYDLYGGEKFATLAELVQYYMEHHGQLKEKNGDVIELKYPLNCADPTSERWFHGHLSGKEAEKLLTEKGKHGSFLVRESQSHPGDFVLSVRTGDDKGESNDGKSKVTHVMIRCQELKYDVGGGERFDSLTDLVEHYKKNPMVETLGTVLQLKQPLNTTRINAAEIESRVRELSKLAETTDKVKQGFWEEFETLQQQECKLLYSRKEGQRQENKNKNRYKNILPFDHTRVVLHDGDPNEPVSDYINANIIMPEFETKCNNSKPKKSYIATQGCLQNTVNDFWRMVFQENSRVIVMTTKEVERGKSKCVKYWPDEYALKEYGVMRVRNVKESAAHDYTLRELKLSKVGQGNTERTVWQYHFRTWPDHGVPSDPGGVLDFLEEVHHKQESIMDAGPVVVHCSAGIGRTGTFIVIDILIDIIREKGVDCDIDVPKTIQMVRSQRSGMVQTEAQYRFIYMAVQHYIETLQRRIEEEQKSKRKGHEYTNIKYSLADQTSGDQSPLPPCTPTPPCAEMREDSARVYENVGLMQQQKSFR

[18] = target: T4, Tyrosine-protein phosphatase non-receptor type 5 (Homo sapiens, UniProt P54829); assay: PTPN5 enzyme inhibition – biochemical, fluorescence intensity, uHTS hits, confirmation (AID 602372); assay type: functional; conditions: read-out: IC50_Mean
T4 sequence (P54829 whole entry): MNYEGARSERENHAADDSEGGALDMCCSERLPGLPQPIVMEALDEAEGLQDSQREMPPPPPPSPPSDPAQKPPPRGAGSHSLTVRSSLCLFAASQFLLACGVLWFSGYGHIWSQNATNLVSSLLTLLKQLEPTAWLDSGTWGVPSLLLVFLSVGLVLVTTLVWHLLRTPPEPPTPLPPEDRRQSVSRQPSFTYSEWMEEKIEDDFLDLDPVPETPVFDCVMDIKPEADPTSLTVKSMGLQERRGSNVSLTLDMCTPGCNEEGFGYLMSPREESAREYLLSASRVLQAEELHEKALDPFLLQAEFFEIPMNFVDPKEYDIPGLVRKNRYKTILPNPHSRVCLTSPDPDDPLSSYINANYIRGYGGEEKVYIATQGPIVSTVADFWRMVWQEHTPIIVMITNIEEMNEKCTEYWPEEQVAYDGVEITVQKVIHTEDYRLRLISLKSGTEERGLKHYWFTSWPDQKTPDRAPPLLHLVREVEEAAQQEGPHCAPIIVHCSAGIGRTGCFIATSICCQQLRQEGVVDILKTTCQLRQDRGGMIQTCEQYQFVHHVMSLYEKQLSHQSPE

[19] = target: Dual specificity protein phosphatase 3 (Homo sapiens, UniProt P51452); assay: VHR phosphatase inhibition, dose response, selectivity assay for STEP inhibitor project, biochemical (AID 602374); assay type: functional; conditions: read-out: IC50_Mean
[20] = target: T5, Low molecular weight phosphotyrosine protein phosphatase (Homo sapiens, UniProt P24666); assay type: functional; conditions: read-out: IC50_Mean
T5 sequence (P24666 whole entry): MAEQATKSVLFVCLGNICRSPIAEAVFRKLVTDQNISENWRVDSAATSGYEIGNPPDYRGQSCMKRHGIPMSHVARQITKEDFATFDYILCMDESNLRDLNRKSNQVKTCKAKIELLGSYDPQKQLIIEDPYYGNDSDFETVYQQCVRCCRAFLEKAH

[21] = target: T5, Low molecular weight phosphotyrosine protein phosphatase; assay type: functional; conditions: read-out: IC50_Mean; remark: listed apart in the source
[22] = target: T6, ATP-dependent translocase ABCB1 (Homo sapiens, UniProt P08183); assay: inhibition of BCRP-mediated JC-1 efflux – Ig-MXP3 cells, flow cytometry, set 2, dose response (AID 504566); assay type: functional; conditions: read-out: EC50_MICROM_;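 also: flow cytometry median green fluorescence of retained JC-1 dye; potency of efflux pump inhibition measured as rising substrate retention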
[23] = target: T6, ATP-dependent translocase ABCB1; assay: P-gp JC-1 efflux blockade concentration-response – Jurkat-DNR cells, flow cytometry, set 2, dose response (AID 504569); assay type: functional; conditions: read-out: EC50_MICROM_;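 also: potency of pump inhibitors that raise cellular JC-1 green fluorescence up to the nicardipine level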
[24] = target: T7, Interleukin-8 (Homo sapiens, UniProt P10145); assay: Dose Response confirmation of uHTS small molecule hits for cystic fibrosis induced NFkb Inhibitors in a TNFa-induced IL8 counterscreen.; assay type: functional; conditions: read-out: IC50_Mean
[25] = target: T7, Interleukin-8; assay: Dose Response confirmation of uHTS small molecule hits for cystic fibrosis induced NFkb Inhibitors in a PAF-induced IL8 counterscreen.; assay type: functional; conditions: read-out: IC50_Mean

T6 sequence (P08183 whole entry): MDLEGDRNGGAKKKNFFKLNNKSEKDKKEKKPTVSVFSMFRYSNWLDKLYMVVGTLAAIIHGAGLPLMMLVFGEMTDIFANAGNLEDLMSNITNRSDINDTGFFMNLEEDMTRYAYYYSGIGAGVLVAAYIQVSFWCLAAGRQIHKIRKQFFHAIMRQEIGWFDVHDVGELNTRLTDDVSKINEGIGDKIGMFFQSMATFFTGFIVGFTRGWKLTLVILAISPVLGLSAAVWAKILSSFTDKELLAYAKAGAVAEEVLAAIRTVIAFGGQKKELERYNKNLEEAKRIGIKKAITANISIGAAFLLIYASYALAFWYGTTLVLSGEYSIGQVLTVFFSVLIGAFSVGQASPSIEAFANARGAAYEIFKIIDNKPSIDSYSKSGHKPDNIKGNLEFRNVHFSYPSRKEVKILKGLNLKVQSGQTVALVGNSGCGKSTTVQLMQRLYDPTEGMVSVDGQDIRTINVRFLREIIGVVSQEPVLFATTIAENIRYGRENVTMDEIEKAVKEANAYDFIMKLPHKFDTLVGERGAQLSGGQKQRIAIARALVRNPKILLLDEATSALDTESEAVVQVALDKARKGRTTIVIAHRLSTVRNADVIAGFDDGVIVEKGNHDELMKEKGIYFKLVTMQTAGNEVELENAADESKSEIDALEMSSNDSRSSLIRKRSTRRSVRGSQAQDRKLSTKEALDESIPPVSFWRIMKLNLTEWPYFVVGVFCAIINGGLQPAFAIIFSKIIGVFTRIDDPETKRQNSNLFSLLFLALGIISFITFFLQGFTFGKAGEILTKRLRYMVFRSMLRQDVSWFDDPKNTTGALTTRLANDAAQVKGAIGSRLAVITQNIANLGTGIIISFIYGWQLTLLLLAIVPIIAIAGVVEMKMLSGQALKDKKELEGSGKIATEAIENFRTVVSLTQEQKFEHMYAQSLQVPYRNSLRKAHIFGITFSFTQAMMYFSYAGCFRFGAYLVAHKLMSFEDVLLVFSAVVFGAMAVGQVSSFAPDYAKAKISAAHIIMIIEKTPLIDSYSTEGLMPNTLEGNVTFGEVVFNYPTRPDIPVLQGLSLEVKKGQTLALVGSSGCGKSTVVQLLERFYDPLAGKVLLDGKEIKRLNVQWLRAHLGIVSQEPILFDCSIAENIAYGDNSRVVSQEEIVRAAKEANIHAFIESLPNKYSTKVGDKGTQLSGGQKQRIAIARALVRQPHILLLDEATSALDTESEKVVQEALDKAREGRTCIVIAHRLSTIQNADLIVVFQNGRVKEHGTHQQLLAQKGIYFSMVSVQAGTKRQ
T7 sequence (P10145 whole entry): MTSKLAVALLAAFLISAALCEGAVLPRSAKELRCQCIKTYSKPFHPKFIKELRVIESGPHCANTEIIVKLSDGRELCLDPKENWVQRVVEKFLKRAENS
Sequence of Ras and Rab interactor 1/Tyrosine-protein kinase ABL1 (P00519 whole entry): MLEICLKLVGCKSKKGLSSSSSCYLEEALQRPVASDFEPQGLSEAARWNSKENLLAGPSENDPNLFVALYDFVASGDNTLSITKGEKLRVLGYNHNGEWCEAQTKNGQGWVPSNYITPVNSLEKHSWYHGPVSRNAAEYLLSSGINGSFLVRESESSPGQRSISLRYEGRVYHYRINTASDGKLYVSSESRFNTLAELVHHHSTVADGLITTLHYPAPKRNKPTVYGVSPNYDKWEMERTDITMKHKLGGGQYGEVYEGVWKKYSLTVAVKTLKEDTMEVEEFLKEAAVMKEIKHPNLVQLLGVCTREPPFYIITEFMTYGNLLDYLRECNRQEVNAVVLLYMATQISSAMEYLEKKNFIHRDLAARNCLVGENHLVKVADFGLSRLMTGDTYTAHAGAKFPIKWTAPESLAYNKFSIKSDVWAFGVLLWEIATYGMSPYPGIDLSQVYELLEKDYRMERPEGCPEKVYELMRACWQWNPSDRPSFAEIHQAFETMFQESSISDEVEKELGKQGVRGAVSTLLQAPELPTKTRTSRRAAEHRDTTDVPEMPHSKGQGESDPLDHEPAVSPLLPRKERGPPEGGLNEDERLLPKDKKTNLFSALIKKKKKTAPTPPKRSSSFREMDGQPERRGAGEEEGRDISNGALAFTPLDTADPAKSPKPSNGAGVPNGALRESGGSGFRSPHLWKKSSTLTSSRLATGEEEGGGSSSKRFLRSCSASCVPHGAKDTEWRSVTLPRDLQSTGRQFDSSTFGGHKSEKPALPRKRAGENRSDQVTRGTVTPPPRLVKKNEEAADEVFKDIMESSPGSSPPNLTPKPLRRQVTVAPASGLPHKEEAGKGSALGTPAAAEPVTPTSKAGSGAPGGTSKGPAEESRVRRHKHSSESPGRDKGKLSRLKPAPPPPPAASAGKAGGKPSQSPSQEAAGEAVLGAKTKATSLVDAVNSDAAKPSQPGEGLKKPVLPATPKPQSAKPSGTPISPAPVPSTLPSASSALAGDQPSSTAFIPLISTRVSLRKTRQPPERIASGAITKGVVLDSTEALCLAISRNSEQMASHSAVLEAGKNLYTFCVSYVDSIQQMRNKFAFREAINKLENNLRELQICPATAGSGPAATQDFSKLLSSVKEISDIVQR
Sequence of Ras and Rab interactor 1/Tyrosine-protein kinase ABL1 (Q13671 whole entry): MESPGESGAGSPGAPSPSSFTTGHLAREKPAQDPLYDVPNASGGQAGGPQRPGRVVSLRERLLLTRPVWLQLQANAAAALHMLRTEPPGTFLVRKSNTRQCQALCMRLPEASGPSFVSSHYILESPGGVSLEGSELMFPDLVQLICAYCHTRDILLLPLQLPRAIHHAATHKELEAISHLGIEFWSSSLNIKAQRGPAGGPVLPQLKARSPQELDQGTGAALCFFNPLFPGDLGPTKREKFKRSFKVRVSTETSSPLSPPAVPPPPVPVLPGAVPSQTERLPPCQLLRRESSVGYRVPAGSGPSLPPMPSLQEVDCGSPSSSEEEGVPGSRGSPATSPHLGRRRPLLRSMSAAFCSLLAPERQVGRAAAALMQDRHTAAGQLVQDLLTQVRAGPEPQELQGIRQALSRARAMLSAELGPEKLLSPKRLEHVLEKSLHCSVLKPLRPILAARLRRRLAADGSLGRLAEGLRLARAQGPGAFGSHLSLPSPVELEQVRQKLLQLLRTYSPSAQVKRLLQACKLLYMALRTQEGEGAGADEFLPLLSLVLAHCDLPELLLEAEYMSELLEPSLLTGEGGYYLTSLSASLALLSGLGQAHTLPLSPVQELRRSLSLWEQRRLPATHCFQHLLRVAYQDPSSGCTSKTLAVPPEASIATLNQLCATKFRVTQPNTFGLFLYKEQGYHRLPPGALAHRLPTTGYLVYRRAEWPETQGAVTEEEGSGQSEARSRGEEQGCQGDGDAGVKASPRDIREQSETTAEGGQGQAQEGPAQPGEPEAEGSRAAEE
Sequence of 5-hydroxytryptamine receptor 5A (P47898 whole entry): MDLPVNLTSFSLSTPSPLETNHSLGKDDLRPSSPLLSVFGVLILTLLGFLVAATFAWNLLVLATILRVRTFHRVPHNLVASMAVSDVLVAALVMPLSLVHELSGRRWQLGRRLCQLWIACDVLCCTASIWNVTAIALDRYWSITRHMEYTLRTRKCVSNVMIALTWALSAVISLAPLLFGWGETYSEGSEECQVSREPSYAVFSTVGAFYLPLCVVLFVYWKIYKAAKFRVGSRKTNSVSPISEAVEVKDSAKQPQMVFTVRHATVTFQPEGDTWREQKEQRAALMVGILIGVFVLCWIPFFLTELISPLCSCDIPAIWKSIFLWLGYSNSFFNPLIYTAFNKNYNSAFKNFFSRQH
Sequence of Delta-type opioid receptor (P41143 whole entry): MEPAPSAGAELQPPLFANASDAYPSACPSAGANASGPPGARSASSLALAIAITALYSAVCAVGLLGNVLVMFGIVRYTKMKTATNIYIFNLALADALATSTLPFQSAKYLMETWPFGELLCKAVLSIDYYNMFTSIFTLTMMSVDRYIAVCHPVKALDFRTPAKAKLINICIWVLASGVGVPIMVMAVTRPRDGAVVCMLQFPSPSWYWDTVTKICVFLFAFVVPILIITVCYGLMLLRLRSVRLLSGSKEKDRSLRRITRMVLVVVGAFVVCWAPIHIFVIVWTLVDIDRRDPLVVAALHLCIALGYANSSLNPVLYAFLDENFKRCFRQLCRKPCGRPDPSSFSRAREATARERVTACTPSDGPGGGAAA
Sequence of Dual specificity protein phosphatase 3 (P51452 whole entry): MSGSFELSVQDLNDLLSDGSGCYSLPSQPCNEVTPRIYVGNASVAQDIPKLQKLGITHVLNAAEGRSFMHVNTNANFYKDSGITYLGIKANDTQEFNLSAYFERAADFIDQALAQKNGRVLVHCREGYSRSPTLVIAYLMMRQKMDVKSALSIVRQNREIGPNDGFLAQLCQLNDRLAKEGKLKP
Sequence of Mu-type opioid receptor (P35372 whole entry): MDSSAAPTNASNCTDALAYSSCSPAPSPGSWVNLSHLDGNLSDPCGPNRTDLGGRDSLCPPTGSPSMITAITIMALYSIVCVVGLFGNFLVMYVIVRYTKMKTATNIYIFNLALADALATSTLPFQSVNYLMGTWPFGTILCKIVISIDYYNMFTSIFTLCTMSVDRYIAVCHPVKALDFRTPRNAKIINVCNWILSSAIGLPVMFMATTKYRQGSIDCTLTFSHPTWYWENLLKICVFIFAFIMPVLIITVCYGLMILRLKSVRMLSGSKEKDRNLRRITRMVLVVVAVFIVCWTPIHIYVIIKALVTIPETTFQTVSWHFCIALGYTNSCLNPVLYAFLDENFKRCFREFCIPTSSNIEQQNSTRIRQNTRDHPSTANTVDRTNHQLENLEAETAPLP
Sequence of Nonstructural protein 1 (Q194T2 whole entry): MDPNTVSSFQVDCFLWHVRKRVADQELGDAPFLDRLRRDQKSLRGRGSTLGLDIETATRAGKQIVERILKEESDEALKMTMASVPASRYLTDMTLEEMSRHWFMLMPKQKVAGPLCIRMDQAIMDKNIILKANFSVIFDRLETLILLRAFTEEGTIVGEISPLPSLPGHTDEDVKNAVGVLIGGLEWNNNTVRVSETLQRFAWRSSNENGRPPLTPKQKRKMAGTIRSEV

COc1cccc(-c2coc3c(C)c4oc(=O)c(CCC(=O)O)c(C)c4cc23)c1
EC50 [1]: 2.4 µM (active)
EC50 [2]: > 150 µM (not active)
EC50 [3]: 13.4 µM (active)
CC50 [4]: > 40 µM (active)
IC50 [5]: 40.5 µM (active)
AC50 [6]: 98 µM (active)
AC50 [7]: 130 µM (active)

Cc1nc2nc(C)n(CCN3CCOCC3)c(=O)c2c(-c2cccc([N+](=O)[O-])c2)c1C(=O)CCCCCCCCCCN1CCC(c2ccccc2)(c2ccccc2)CC1
IC50 [8]: 21.9 µM (active)
EC50 [9]: > 92.4 µM (inactive)
EC50 [10]: > 92.4 µM (inactive)
EC50 [11]: > 92.4 µM (inactive)
IC50 [12]: 1.35 µM (active)
AC50 [13]: 7.38 µM (active)
AC50 [14]: 14.7 µM (active)
AC50 [15]: 11.3 µM (active)

Cc1cc(C)c(O)c(N2CC(C(=O)O)CC2=O)c1 (stereo not given)
EC50 [16]: > 100 µM (inactive)

O=C(N/N=C/c1cccc([N+](=O)[O-])c1)c1ccc(Br)cc1
IC50 [17]: 6.62 µM (active)
IC50 [18]: 8.16 µM (active)
IC50 [19]: 5.03 µM (active)
IC50 [20]: 15.1 µM (active)
IC50 [21]: 22.8 µM (inactive)

O=C(c1ccccc1Cl)N1CCN(c2cc(-c3ccccc3)nc3cc(-c4cccc(Cl)c4)nn23)CC1
EC50 [22]: 1.15 µM (active)
EC50 [23]: 1.07 µM (active)

Fc1cccc(Cl)c1/C=N/Nc1c(Cl)cncc1Cl
IC50 [24]: > 79 µM (inactive)
IC50 [25]: 14.8 µM (inactive)
